# Patent US9926324B2, “Heteroaromatic compounds as PI3 kinase modulators and methods of use” (Calitor Sciences, LLC, priority 2012, dated 2018)
# Read-outs that look alike come from different tables or passages of the source.
# Key:
# [1] = Compound stability in human liver microsomes; type: in vitro ADME; settings: for half-life at 5 μM / CLint scaled at 5 μM: pH 7.4; for half-life at 5 μM: read-out: Human T1/2; for CLint scaled at 5 μM: human liver microsomes, in vivo CLint extrapolated
# Experimental: (§1) Human or rat liver microsomes incubations were conducted in duplicate in polypropylene tubes. The typical incubation mixtures consisted of human or rat liver microsomes (0.5 mg protein/mL), compounds of interest (5 μM) and NADPH (1.0 mM) in a total volume of 200 μL potassium phosphate buffer (PBS, 100 mM, pH=7.4). Compounds were dissolved in DMSO and diluted with PBS such that the final concentration of DMSO was 0.05%. The enzymatic reactions were commenced with the addition of […] after a 3-min preincubation and incubated in a water bath open to the air at 37° C. Reactions were terminated at various time points (0, 5, 10, 15, 30, 60 min) by adding equal volume of ice-cold acetonitrile. The samples were stored at −80° C. until LC/MS/MS assays.
# (§2) The concentrations of compounds in the incubation mixtures of human or rat liver microsomes were determined by a LC/MS/MS method. The ranges of the linearity in the concentration range were determined for each tested compounds.
# (§3) A parallel incubation was performed using denatured microsomes as the negative control, and reactions were terminated at various time points (0, 15, 60 min) after incubation at 37° C.
# (§4) Dextromethorphan (70 μM) was selected as the positive control, and reactions were terminated at various time points (0, 5, 10, 15, 30, 60 min) after incubation at 37° C. Both positive and negative control samples were included in each assay to ensure the integrity of the microsomal incubation system.
# (§5) The concentrations of compounds in human or rat liver microsome incubations were plotted as a percentage of the relevant zero time point control for each reaction. The in vivo CLint were extrapolated (ref: Naritomi Y, Terashita S, Kimura S, Suzuki A, Kagayama A, Sugiyama Y. Prediction of human hepatic clearance from in vivo animal experiments and in vitro metabolic studies with liver microsomes from animals and humans. Drug Metabolism and Disposition 2001, 29: 1316-1324).
# [2] = Compound stability in rat liver microsomes; type: in vitro ADME; settings: for half-life at 5 μM / CLint scaled at 5 μM: pH 7.4; for half-life at 5 μM: read-out: Rat T1/2; for CLint scaled at 5 μM: rat liver microsomes, in vivo CLint extrapolated
# Experimental: as §1, §2, §3, §4, §5
# [3] = Pharmacokinetic profiles in rats after intravenous and oral administration; type: in vivo; settings: for F: oral dose generally 5 or 10 mg/kg; for AUC(0-t) / half-life / Vd: rat, plasma; for Vd: read-out: Vss
# Experimental: The compounds disclosed herein are assessed in pharmacokinetic studies in mice, rats, dogs or monkeys. The compounds are administered as a water solution, 2% HPMC+1% TWEEN® 80 in water solution, 5% DMSO+5% solutol in saline, 4% MC suspension or capsule. For the intravenous administration, the animals are generally given at 1 or 2 mg/kg dose. For the oral (p.o.) dosing, mice and rats are generally given 5 or 10 mg/kg dose, and dogs and monkeys are generally given 10 mg/kg dose. The blood samples (0.3 mL) are drawn at 0.25, 0.5, 1.0, 2.0, 3.0, 4.0, 6.0, 8.0, 12 and 24 h time points or 0.083, 0.25, 0.5, 1.0, 2.0, 4.0, 6.0, 8.0 and 24 h time points and centrifuged at 3,000 or 4000 rpm for 2 to 10 min. The plasma solutions are collected, stored at −20° C. or −70° C. until analyzed by LC/MS/MS as described above.
# PI3K p110α/p85α (h) = biological target: T1, PI3K p110α/p85α (h) (Homo sapiens, UniProt P42336); test: PI3K p110α/p85α (h) non-radioactive HTRF assay; type: biochemical
# T1 construct: purchased Millipore UK Ltd (assay service)
# T1 sequence (P42336 whole entry): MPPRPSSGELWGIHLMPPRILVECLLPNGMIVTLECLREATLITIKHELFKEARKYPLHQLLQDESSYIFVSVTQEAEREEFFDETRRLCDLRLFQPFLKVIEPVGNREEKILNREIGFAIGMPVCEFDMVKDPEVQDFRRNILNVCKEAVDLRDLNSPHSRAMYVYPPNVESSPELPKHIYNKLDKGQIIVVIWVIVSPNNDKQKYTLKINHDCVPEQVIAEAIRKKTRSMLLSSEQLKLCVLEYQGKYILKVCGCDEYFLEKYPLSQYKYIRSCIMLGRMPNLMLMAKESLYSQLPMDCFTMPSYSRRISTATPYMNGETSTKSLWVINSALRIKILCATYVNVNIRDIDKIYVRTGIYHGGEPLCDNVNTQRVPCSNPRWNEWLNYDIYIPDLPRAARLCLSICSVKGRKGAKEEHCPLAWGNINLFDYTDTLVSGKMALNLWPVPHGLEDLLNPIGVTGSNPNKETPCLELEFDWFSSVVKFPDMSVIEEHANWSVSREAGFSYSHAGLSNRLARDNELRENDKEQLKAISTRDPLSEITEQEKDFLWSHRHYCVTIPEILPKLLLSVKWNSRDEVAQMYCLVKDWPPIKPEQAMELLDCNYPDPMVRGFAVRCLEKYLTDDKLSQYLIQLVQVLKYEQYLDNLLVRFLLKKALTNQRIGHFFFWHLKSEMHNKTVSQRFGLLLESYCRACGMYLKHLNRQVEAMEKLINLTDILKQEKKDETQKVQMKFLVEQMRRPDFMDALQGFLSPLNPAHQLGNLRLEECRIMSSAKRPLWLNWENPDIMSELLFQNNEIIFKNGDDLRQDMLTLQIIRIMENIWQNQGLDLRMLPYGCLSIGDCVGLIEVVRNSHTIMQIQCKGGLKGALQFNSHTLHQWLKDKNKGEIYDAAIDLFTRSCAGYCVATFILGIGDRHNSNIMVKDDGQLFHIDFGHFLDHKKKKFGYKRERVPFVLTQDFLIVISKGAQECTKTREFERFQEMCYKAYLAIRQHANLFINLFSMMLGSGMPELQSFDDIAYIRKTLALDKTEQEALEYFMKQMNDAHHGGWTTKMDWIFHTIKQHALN
# T1 sequence (P27986 whole entry partner): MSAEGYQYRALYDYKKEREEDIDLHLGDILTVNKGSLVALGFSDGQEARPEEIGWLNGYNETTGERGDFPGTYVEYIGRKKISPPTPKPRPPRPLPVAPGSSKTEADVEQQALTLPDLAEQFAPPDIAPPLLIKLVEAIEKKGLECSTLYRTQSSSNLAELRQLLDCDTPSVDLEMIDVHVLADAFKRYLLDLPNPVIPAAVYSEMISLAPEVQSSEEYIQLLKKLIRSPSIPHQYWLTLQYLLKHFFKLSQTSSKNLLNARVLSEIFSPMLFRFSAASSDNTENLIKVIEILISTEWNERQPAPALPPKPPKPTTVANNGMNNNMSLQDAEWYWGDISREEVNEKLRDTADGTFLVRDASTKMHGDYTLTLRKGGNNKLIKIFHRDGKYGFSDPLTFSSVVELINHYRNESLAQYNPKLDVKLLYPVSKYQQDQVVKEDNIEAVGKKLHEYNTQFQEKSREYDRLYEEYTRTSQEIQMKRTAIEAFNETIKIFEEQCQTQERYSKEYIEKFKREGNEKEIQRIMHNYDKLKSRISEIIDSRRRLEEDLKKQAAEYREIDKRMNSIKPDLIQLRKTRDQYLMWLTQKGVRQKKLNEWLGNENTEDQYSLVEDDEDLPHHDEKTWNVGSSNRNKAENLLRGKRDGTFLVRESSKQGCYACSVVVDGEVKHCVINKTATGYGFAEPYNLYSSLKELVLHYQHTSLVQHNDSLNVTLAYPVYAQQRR
# Experimental: PI3K p110α/p85α (h) is incubated in assay buffer containing 10 μM phosphatidylinositol 4,5-bisphosphate and MgATP (concentration as required). The reaction is initiated by the addition of the ATP solution. After incubation for 30 minutes at room temperature, the reaction is stopped by the addition of stop solution containing EDTA and biotinylated phosphatidylinositol-3,4,5-trisphosphate. Finally, detection buffer is added, which contains europium-labelled anti-GST monoclonal antibody, GST-tagged GRP1 PH domain and streptavidin allophycocyanin. The plate is then read in timeresolved fluorescence mode and the homogenous time-resolved fluorescence (HTRF) signal is determined according to the formula HTRF=10000×(Em665 nm/Em620 nm).
# The kinase assays described herein were performed at Millipore UK Ltd, Dundee Technology Park, Dundee DD2 1SW, UK.
# U87MG glioblastoma cells = test: Tumor xenograft model (U87MG), tumor growth inhibition; type: in vivo, athymic nude mice; settings: 12 days
# Experimental: The efficacy of compounds disclosed herein was evaluated in a standard murine model of tumorigenesis. Human tumor cells (U87MG glioblastoma cells from ATCC) were expended in culture, harvested, and injected subcutaneously onto the rear flank of 6-7 week old female athymic nude mice (BALB/cA nu/nu, Hunan SLAC Laboratory Animal, Co.) (n=6-10 for vehicle group and for each dosing group). When tumors reached a volume of 100-250 mm^3, animals were randomly divided into vehicle control (for example, 5% DMSO+70% Captisol® (30%), 7% HCl (pH1), 18% Captisol® (30%); or 7% DMSO, 7% HCl (pH1), 70% Captisol® (30%), 16% Captisol® (30%), or the like) and compound groups. Subsequent administration of compound by oral gavage begins anywhere from day 0 to day 15 post tumor cell challenge and generally continues with once a day for the duration of the experiment.
# Progression of tumor growth is assessed by tumor volumes and recorded as a function of time. The long (L) and short (W) axes of the subcutaneous tumors were measured with calipers twice weekly, and the tumor volume (TV) calculated as (L×W^2)/2). TGI was calculated from the difference between the median tumor volumes of vehicle-treated and drug-treated mice, expressed as a percentage of the median tumor volume of the vehicle-treated control group, by the following relation:
# Initial statistical analysis is done by repeated measures analysis of variance (RMANOVA), followed by Scheffe psot hoc testing for multiple comparisons. Vehicle alone (5% DMSO+70% Captisol® (30%), 7% HCl (pH1), 18% Captisol® (30%); or 7% DMSO, 7% HCl (pH1), 70% Captisol® (30%), 16% Captisol® (30%), or the like) is the negative control.
# [4] = human liver microsomes 0.5 mg protein/mL, compound 5 μM, NADPH 1.0 mM, 37° C.
# [5] = rat liver microsomes 0.5 mg protein/mL, compound 5 μM, NADPH 1.0 mM, 37° C.
SMILES,"half-life at 5 μM [1, 4] [h]",CLint scaled at 5 μM [1] [mL/min/kg],"half-life at 5 μM [2, 5] [h]",CLint scaled at 5 μM [2] [mL/min/kg],F ([3]; iv dose 2 mg/kg) [%],Cl/F ([3]; iv dosing 2 mg/kg) [mL/min/kg],AUC(0-t) ([3]; iv dosing 2 mg/kg) [ng·h/mL],half-life ([3]; iv dosing 2 mg/kg) [h],Vd ([3]; iv dosing 2 mg/kg) [L/kg],IC50 (PI3K p110α/p85α (h)) [nM],TGI % U87MG (U87MG glioblastoma cells; 1 mg/kg oral gavage) [%],TGI % U87MG (U87MG glioblastoma cells; 3 mg/kg oral gavage) [%],TGI % U87MG (U87MG glioblastoma cells; 10 mg/kg oral gavage) [%],F ([3]; iv dose 1 mg/kg) [%],Cl/F ([3]; iv dosing 1 mg/kg) [mL/min/kg],AUC(0-t) ([3]; iv dosing 1 mg/kg) [ng·h/mL],half-life ([3]; iv dosing 1 mg/kg) [h],Vd ([3]; iv dosing 1 mg/kg) [L/kg],"Human T1/2 [1, 4]","Rat T1/2 [2, 5]"
"COc1ncc(-c2ccc3ncc(C#CC(C)O)n3n2)cc1NS(=O)(=O)c1ccc(F)cc1F (centres unmarked) [Ex. 10, 2,4-difluoro-N-(5-(3-(3-hydroxybut-1-yn-1-yl)imidazo[1,2-b]pyridazin-6-yl)-2-methoxypyridin-3-yl)benzenesulfonamide]",8.79,3.3,4.66,8.89,79.88,0.5,67000,4.27,0.14,3,32,44,65,,,,,,,
"COc1ncc(-c2ccc3ncc(C#CC(C)(C)O)n3n2)cc1NS(=O)(=O)c1ccc(F)cc1F [Ex. 11, 2,4-difluoro N (5 (3 (3 hydroxy-3-methylbut-1-yn-1-yl)imidazo[1,2-b]pyridazin-6-yl)-2-methoxypyridin-3-yl)benzenesulfonamide]",,,,,,,,,,8,,,,115.8,0.33,40400,4.92,0.15,,
"CC#Cc1cnc2ccc(-c3cnc(OC)c(NS(=O)(=O)c4ccc(F)cc4F)c3)nn12 [Ex. 13, 2,4-difluoro-N-(2-methoxy-5-(3-(prop-1-yn-1-yl)imidazo[1,2-b]pyridazin-6-yl)pyridin-3-yl)benzenesulfonamide]",18.8,1.54,1.59,26.1,,,,,,,,,,95.8,1.5,11300,3.08,0.32,,
"COc1ncc(-c2ccc3ncc(C#CC(C)(C)O)n3c2)cc1NS(=O)(=O)c1ccc(F)cc1F [Ex. 17, 2,4-difluoro-N-(5-(3-(3-hydroxy-3-methylbut-1-yn-1-yl)imidazo[1,2-a]pyridin-6-yl)-2-methoxypyridin-3-yl)benzenesulfonamide]",8.53,3.4,4.66,8.87,,,,,,,,,,123.1,0.5,38700,5.3,0.17,,
"COc1ncc(-c2ccc3nnc(C#CC(C)O)n3c2)cc1NS(=O)(=O)c1ccc(F)cc1F (centres unmarked) [Ex. 23, 2,4-difluoro N (5 (3 (3 hydroxybut-1-yn-1-yl)-[1,2,4]-triazolo[4,3-a]pyridin-6-yl)-2-methoxypyridin-3-yl)benzenesulfonamide]",,,,,,,,,,,,,,5.9,30.2,561,0.15,0.19,∞,∞
